US9458202B2, “Peptidomimetic macrocycles with improved properties” (Aileron Therapeutics, Inc., priority 2008, dated 2016)
Where a SMILES comes first, the peptide text is derived from it. Bridges are numbered along the chain shown (N, C = ends). [ ]: non-standard residue; d: D form. The star is where a group is joined. S5 = C=CCCC[C@](C)(N)C(=O)O; Nle = CCCC[C@H](N)C(=O)O; Aib = CC(C)(N)C(=O)O; Propionyl = CCC(=O)*

Columns and labels:
Figure 5 = test: Figure 5
Text: Table printed on a drawing sheet, Figure 5
The patent's description of the figure: FIG. 5 illustrates the PK profile in rat and monkey for a peptidomimetic macrocycle of the invention.
First reader's note: The first row combines the substance name (SP2) with the conditions dose, route and species in one cell.

Figure 2 = test: Figure 2; set-up: AUCall: concentration or dose not given beside the values; conditions: for C0 / half-life / MRT: Sprague-Dawley, rat, plasma, iv; for MRT: read-out: MRTinf_obs
Method: Table printed on a drawing sheet, Figure 2
Footnotes: 2 mg/mL iv bolus in Sprague-Dawley rats (10 mg/kg) / * 0.6 mg/mL iv bolus in Sprague-Dawley rats (3 mg/kg)
The patent's description of the figure: FIG. 2 lists the in vivo half-lives of peptidomimetic macrocycles of the invention. Half-lives were measured in Sprague Dawley rats after one intravenous bolus injection at 0.6 mg/mL or 2 mg/mL of each unlabeled peptidomimetic macrocycle at a 3 mg/kg or 10 mg/kg dose, respectively. Three animals were used per compound and concentrations were determined by mass-spectrometric analysis of blood levels (plasma).
First reader's note: An asterisk before the peptide name marks dosing at 3 mg/kg (0.6 mg/mL) instead of 10 mg/kg (2 mg/mL).

Row | Compound | AUC all (Figure 5) [µg·h/mL] | Cmax (Figure 5) [µg/mL] | MRTinf (Figure 5) [h] | T ½ (Figure 5) [h] | AUCall (Figure 2) [µg·h/mL] | Cl_obs (Figure 2) [mL/min/kg] | C0 (Figure 2) [µg/mL] | half-life (Figure 2) [h] | MRT (Figure 2) [h]
1 | CC[C@H](C)[C@H](NC(C)=O)C(=O)N[C@@H](Cc1c[nH]c2ccccc12)C(=O)N[C@H](C(=O)N[C@@H](C)C(=O)N[C@@H](CCC(N)=O)C(=O)N[C@@H](CCC(=O)O)C(=O)N[C@@H](CC(C)C)C(=O)N[C@@H](CCCNC(=N)N)C(=O)N[C@@]1(C)CCCC=CCCC[C@@](C)(C(=O)N[C@@H](Cc2ccccc2)C(=O)N[C@@H](CC(N)=O)C(=O)N[C@@H](C)C(=O)N[C@@H](Cc2ccc(O)cc2)C(=O)N[C@@H](Cc2ccc(O)cc2)C(=O)N[C@@H](C)C(=O)N[C@@H](CCCNC(=N)N)C(=O)N[C@@H](CCCNC(=N)N)C(N)=O)NC(=O)[C@H](CC(=O)O)NC(=O)CNC(=O)[C@H]([C@@H](C)CC)NC1=O)[C@@H](C)CC (single isomer, unassigned) [SP2 1 mg/kg IV monkey] | 27.275 | 19.049 | 1.8 | 2.2 | – | – | – | – | –
2 | CC[C@H](C)[C@H](NC(C)=O)C(=O)N[C@@H](Cc1c[nH]c2ccccc12)C(=O)N[C@H](C(=O)N[C@@H](C)C(=O)N[C@@H](CCC(N)=O)C(=O)N[C@@H](CCC(=O)O)C(=O)N[C@@H](CC(C)C)C(=O)N[C@@H](CCCNC(=N)N)C(=O)N[C@@]1(C)CCCC=CCCC[C@@](C)(C(=O)N[C@@H](Cc2ccccc2)C(=O)N[C@@H](CC(N)=O)C(=O)N[C@@H](C)C(=O)N[C@@H](Cc2ccc(O)cc2)C(=O)N[C@@H](Cc2ccc(O)cc2)C(=O)N[C@@H](C)C(=O)N[C@@H](CCCNC(=N)N)C(=O)N[C@@H](CCCNC(=N)N)C(N)=O)NC(=O)[C@H](CC(=O)O)NC(=O)CNC(=O)[C@H]([C@@H](C)CC)NC1=O)[C@@H](C)CC (single isomer, unassigned) [SP2 3 mg/kg IV monkey] | 110.669 | 51.54 | 1.9 | 2 | – | – | – | – | –
3 | CC[C@H](C)[C@H](NC(C)=O)C(=O)N[C@@H](Cc1c[nH]c2ccccc12)C(=O)N[C@H](C(=O)N[C@@H](C)C(=O)N[C@@H](CCC(N)=O)C(=O)N[C@@H](CCC(=O)O)C(=O)N[C@@H](CC(C)C)C(=O)N[C@@H](CCCNC(=N)N)C(=O)N[C@@]1(C)CCCC=CCCC[C@@](C)(C(=O)N[C@@H](Cc2ccccc2)C(=O)N[C@@H](CC(N)=O)C(=O)N[C@@H](C)C(=O)N[C@@H](Cc2ccc(O)cc2)C(=O)N[C@@H](Cc2ccc(O)cc2)C(=O)N[C@@H](C)C(=O)N[C@@H](CCCNC(=N)N)C(=O)N[C@@H](CCCNC(=N)N)C(N)=O)NC(=O)[C@H](CC(=O)O)NC(=O)CNC(=O)[C@H]([C@@H](C)CC)NC1=O)[C@@H](C)CC (single isomer, unassigned) [SP2 10 mg/kg IV monkey] | 427.932 | 180.01 | 2.2 | 1.9 | – | – | – | – | –
4 | CC[C@H](C)[C@H](NC(C)=O)C(=O)N[C@@H](Cc1c[nH]c2ccccc12)C(=O)N[C@H](C(=O)N[C@@H](C)C(=O)N[C@@H](CCC(N)=O)C(=O)N[C@@H](CCC(=O)O)C(=O)N[C@@H](CC(C)C)C(=O)N[C@@H](CCCNC(=N)N)C(=O)N[C@@]1(C)CCCC=CCCC[C@@](C)(C(=O)N[C@@H](Cc2ccccc2)C(=O)N[C@@H](CC(N)=O)C(=O)N[C@@H](C)C(=O)N[C@@H](Cc2ccc(O)cc2)C(=O)N[C@@H](Cc2ccc(O)cc2)C(=O)N[C@@H](C)C(=O)N[C@@H](CCCNC(=N)N)C(=O)N[C@@H](CCCNC(=N)N)C(N)=O)NC(=O)[C@H](CC(=O)O)NC(=O)CNC(=O)[C@H]([C@@H](C)CC)NC1=O)[C@@H](C)CC (single isomer, unassigned) [SP2 10 mg/kg IV rat] | 170.685 | 70.325 | 3.1 | 5.7 | – | – | – | – | –
5 | CC[C@H](C)[C@H](NC(C)=O)C(=O)N[C@@H](Cc1c[nH]c2ccccc12)C(=O)N[C@H](C(=O)N[C@@H](C)C(=O)N[C@@H](CCC(N)=O)C(=O)N[C@@H](CCC(=O)O)C(=O)N[C@@H](CC(C)C)C(=O)N[C@@H](CCCNC(=N)N)C(=O)N[C@@]1(C)CCCC=CCCC[C@@](C)(C(=O)N[C@@H](Cc2ccccc2)C(=O)N[C@@H](CC(N)=O)C(=O)N[C@@H](C)C(=O)N[C@@H](Cc2ccc(O)cc2)C(=O)N[C@@H](Cc2ccc(O)cc2)C(=O)N[C@@H](C)C(=O)N[C@@H](CCCNC(=N)N)C(=O)N[C@@H](CCCNC(=N)N)C(N)=O)NC(=O)[C@H](CC(=O)O)NC(=O)CNC(=O)[C@H]([C@@H](C)CC)NC1=O)[C@@H](C)CC (single isomer, unassigned) [SP2] | – | – | – | – | 170.685 | 1.36 | 70.3 | 5.7 | 3.1
6 | CCCC[C@H](NC(=O)[C@]1(C)CCCC=CCCC[C@](C)(NC(=O)[C@H](C)NC(=O)[C@H](CC(C)C)NC(=O)[C@]2(C)CCCC=CCCCCC(=O)N[C@@H]([C@@H](C)CC)C(=O)N[C@@H](C)C(=O)N[C@@H](CCCNC(=N)N)C(=O)N2)C(=O)N[C@@H](C(C)C)C(=O)NCC(=O)N[C@@H](CC(=O)O)C(=O)N1)C(=O)N[C@@H](CC(=O)O)C(=O)N[C@@H](CCCNC(=N)N)C(=O)N[C@@H](CO)C(=O)N[C@H](C(N)=O)[C@@H](C)CC [*SP12] | – | – | – | – | 69.035 | 0.503 | 6.4 | 5.9 | 9.2
7 | CC[C@H](C)[C@H](NC(C)=O)C(=O)N[C@@H](Cc1c[nH]c2ccccc12)C(=O)N[C@H](C(=O)N[C@@H](C)C(=O)N[C@@H](CCC(N)=O)C(=O)N[C@@H](CCC(N)=O)C(=O)N[C@@H](CC(C)C)C(=O)N[C@@H](CCCNC(=N)N)C(=O)N[C@@]1(C)CCCC=CCCC[C@@](C)(C(=O)N[C@@H](Cc2ccccc2)C(=O)N[C@@H](CC(N)=O)C(=O)N[C@@H](C)C(=O)N[C@@H](Cc2ccc(O)cc2)C(=O)N[C@@H](Cc2ccc(O)cc2)C(=O)N[C@@H](C)C(=O)N[C@@H](CCCNC(=N)N)C(=O)N[C@@H](CCCNC(=N)N)C(N)=O)NC(=O)[C@H](CC(=O)O)NC(=O)CNC(=O)[C@H]([C@@H](C)CC)NC1=O)[C@@H](C)CC [SP3] | – | – | – | – | 156.183 | 1.1 | 186 | 11.1 | 4.3
8 | CCCC[C@H](NC(=O)[C@]1(C)CCCC=CCCC[C@](C)(NC(=O)[C@H](C)NC(=O)[C@H](CC(C)C)NC(=O)[C@H](Cc2c[nH]cn2)NC(=O)[C@H](CCCNC(=N)N)NC(=O)[C@H](C)NC(=O)[C@@H](NC(=O)[C@H](CC(N)=O)NC(=O)[C@H](CCCNC(=N)N)NC(=O)CC)[C@@H](C)CC)C(=O)N[C@@H](C(C)C)C(=O)NC(C)(C)C(=O)N[C@@H](CC(=O)O)C(=O)N1)C(=O)N[C@@H](CC(=O)O)C(=O)N[C@@H](CCCNC(=N)N)C(=O)N[C@@H](CO)C(=O)N[C@H](C(N)=O)[C@@H](C)CC [SP5] (Propionyl-RNIARHLA[S5]V[Aib]D[S5][Nle]DRSI-NH2; staple 9-13) | – | – | – | – | 127.629 | 1.52 | 271 | 2.4 | 0.6
9 | CC[C@H](C)[C@H](NC(=O)[C@H](CO)NC(=O)[C@H](CCCNC(=N)N)NC(=O)[C@H](C)NC(=O)[C@H](C)NC(=O)[C@]1(C)CCCC=CCCC[C@](C)(NC(=O)[C@H](C)NC(=O)[C@H](CC(C)C)NC(=O)[C@H](Cc2c[nH]cn2)NC(=O)[C@H](CCCNC(=N)N)NC(=O)[C@H](C)NC(=O)[C@@H](NC(=O)[C@H](CC(N)=O)NC(=O)[C@H](CCCNC(=N)N)NC(=O)[C@@H](NC(=O)[C@@H](NC(=O)[C@H](CC(=O)O)NC(C)=O)[C@@H](C)CC)[C@@H](C)CC)[C@@H](C)CC)C(=O)N[C@@H](C(C)C)C(=O)NC(C)(C)C(=O)N[C@@H](CC(=O)O)C(=O)N1)C(N)=O [SP7] (Ac-DIIRNIARHLA[S5]V[Aib]D[S5]AARSI-NH2; staple 12-16) | – | – | – | – | 402.899 | 0.398 | 158 | 3.9 | 3.1
10 | CCC(=O)N[C@@H](CCCNC(=N)N)C(=O)N[C@@H](CC(N)=O)C(=O)N[C@H](C(=O)N[C@@H](C)C(=O)N[C@@H](CCCNC(=N)N)C(=O)N[C@@H](Cc1c[nH]cn1)C(=O)N[C@@H](CC(C)C)C(=O)N[C@@H](C)C(=O)N[C@@]1(C)CCCC=CCCC[C@@](C)(C(=O)N[C@@H](Cc2ccccc2)C(=O)N[C@@H](C)C(=O)N[C@@H](CCCNC(=N)N)C(=O)N[C@@H](CO)C(=O)N[C@H](C(N)=O)[C@@H](C)CC)NC(=O)[C@H](CC(=O)O)NC(=O)C(C)(C)NC(=O)[C@H](C(C)C)NC1=O)[C@@H](C)CC [SP8] (Propionyl-RNIARHLA[S5]V[Aib]D[S5]FARSI-NH2; staple 9-13) | – | – | – | – | 73.751 | 1.997 | 148 | 19.9 | 2.3
11 | CCCC[C@H](NC(=O)[C@]1(C)CCCC=CCCC[C@](C)(NC(=O)[C@H](C)NC(=O)[C@H](CC(C)C)NC(=O)[C@H](Cc2c[nH]cn2)NC(=O)[C@H](CCCNC(=N)N)NC(=O)[C@H](C)NC(=O)[C@@H](NC(=O)[C@H](CC(N)=O)NC(=O)[C@H](CCCNC(=N)N)NC(=O)CC)[C@@H](C)CC)C(=O)N[C@@H](C(C)C)C(=O)NCC(=O)N[C@@H](CC(=O)O)C(=O)N1)C(=O)NC(C)(C)C(=O)N[C@@H](CCCNC(=N)N)C(=O)N[C@@H](CO)C(=O)N[C@H](C(N)=O)[C@@H](C)CC [SP10] (Propionyl-RNIARHLA[S5]VGD[S5][Nle][Aib]RSI-NH2; staple 9-13) | – | – | – | – | 35.591 | 3.605 | 51.7 | 21.8 | 3
